Consider 2 molecules from patent US8946327B2, “Method for producing synthetic amylospheroid” (Tao Health Life Pharma., Ltd., priority 2011, dated 2015).

The test system of the data set is primary cultured neurons derived from hippocampus of mature rat. The data set can be described thus: Cytotoxicity test (Cell Death Detection ELISA, apoptosis). The class given is cell-based. As for the experimental part: The formation of ASPD was confirmed by the following cytotoxicity test. A certain amount of ASPD was administered overnight to primary cultured neurons (more than 19 days after starting culture) derived from hippocampus of mature rat, and the neurotoxicity was measured in accordance with protocols using Cell Death Detection ELISA manufactured by Roche Diagnostics. This is an ELISA kit for quantitative detection of histone-complexed DNA fragmentation in the cells caused by apoptosis.
A general note: An ELISA detects its analyte on a solid surface through an enzyme-linked reagent.

Regarding `CCCCC(CC)COC(=O)c1ccccc1C(=O)OCC(CC)CCCC` (centres unmarked) [DEHP, bis(2-ethylhexyl)phthalate], for the setting “solution containing the same concentration of DEHP and not containing synthetic ASPD, data not shown”, the “cytotoxicity (neurotoxicity)” value is listed as “No cytotoxicity”.
As for “Example 1: synthetic ASPD (amylospheroid) formed from Aβ42 by agitation using 65 mM DEHP/DMSO solution”, for the setting “solution containing synthetic ASPD before purification, 1, 2 and 4 μM in terms of Aβ42, administered overnight, compared with Comparative Example 1 (DEHP−), FIG. 2”, the “cytotoxicity (neurotoxicity)” value is on record as “significant cytotoxicity in a concentration-dependent manner”.
